# According to patent US5525627A, “Esters of acyl carnitines with long-chain aliphatic alcohols and pharmaceutical compositions containing same having antimycotic activity” (Sigma-Tau Industrie Farmaceutiche Riunite S.p.A., priority 1992, dated 1996):
# Tests used:
# filamentous fungi = experiment: MIC / MFC for filamentous fungi, all strains; assay type: cell-based, Aspergillus, Fusarium, Mucor, Penicillium; details: versus susceptible strains; read-out: Mean MIC values
# Description: (§1) The following strains were used (the number of strains is in brackets): Aspergillus (5); Fusarium (1); Mucor (1); Penicillium (1).
# (§2) The tested substances were: ST 712, ST 722, ST 982, ST 983, ST 1000, ST 1001, ST 1032, ST 1033, ST 1034, ST 1036, ST 1037, ST 1038, ST 1050, ST 1051, ST 1052, ST 1053. The assay medium was the same as the one used in the previous study. The conidia from 72-hour cultures in Sabouraud agar, collected by washing with Sabouraud medium and Tween 80 (one drop of Tween per 10 ml of medium), were utilized as inoculum (5.0×10^4 CFU/ml).
# (§3) The assay was performed using the same procedure as described for yeast-like fungi.
# (§4) Also the evaluation of MIC and MFC was as reported previously.
# yeast-like fungi = experiment: MIC / MFC for yeast-like fungi, all strains; assay type: cell-based, Candida, Cryptococcus, Saccharomyces, Torulopsis; details: versus susceptible strains; read-out: Mean MIC values
# Experimental: (§5) The following strains were used (the number of strains is in brackets): Candida (13); Criptococcus (2); Saccharormyces (1); Torulopsis (1).
# (§6) Yeast Nitrogen Base supplemented with 0.15% asparagine and 1.0% glucose (as carbon source) was the medium utilized in the assays.
# (§7) This medium was buffered with 0.165 M 2-(N-morpholino) propane sulfonic acid (MOPS), a non-chelating buffer. […]
# (§8) The inoculum was prepared from an overnight broth culture (a 48-hour culture only for Cryptococcus) in Sabouraud broth and appropriately diluted to yield a final suspension containing approximately 5.0×10^6 Colony Forming Units per ml (CFU/ml), when compared to the Mc Farland's standard control (BRAY W. E., Clinical Laboratory Methods, 5th Ed. C. V. MOSBY, St. Louis, Mo, 1957).
# (§9) After further diluting (1:50), a […] volume of such fungal suspensions and an equal volume of the substance solutions were distributed into each well of a microtiter plate (96 wells, round bottom). Such a procedure eventually allowed for an "in vitro" antimycotic activity assay utilizing final fungal inocula of approximately 5.0×10^4 CFU/ml.
# (§10) The minimal fungicidal concentration was evaluated by spot-transferring onto Petri dishes, containing Sabouraud agar, 0.01-ml volumes of all the samples showing no visible fungal growth.
# [1] = tested on: Candida guilliermondii (ISS 1); experiment: MIC for yeast and yeast-like strains; assay type: cell-based; details: Meyerozyma guilliermondii; 48 hours, 35° C.; read-out: Minimal Inhibitory Concentration (MIC)
# Experimental: as §5, §6
# (§11) This medium was buffered with 0.165 M 2-(N-morpholino) propane sulfonic acid (MOPS), a non-chelating buffer.
# (§12) Antimicrob. Agents Cheroother. Aug. 34.8:1542-1545).
# as §8, §9
# [2] = tested on: Cryptococcus neoformans (ISS 1); experiment: MIC for yeast and yeast-like strains; assay type: cell-based; details: 48 hours, 35° C., read-out: Minimal Inhibitory Concentration (MIC)
# Experimental: as §5, §6, §11, §12, §8, §9
# [3] = tested on: Candida parapsilosis (ISS 1); experiment: MIC for yeast and yeast-like strains; assay type: cell-based; details: Lodderomyces parapsilosis; 48 hours, 35° C.; read-out: Minimal Inhibitory Concentration (MIC)
# Experimental: as §5, §6, §11, §12, §8, §9
# [4] = tested on: Candida albicans (ATCC 2091); experiment: MIC for yeast and yeast-like strains; assay type: cell-based; details: ATCC2091, 48 hours, 35° C., read-out: Minimal Inhibitory Concentration (MIC)
# Experimental: as §5, §6, §11, §12, §8, §9
# [5] = tested on: Candida pseudotropicalis (EC 1); experiment: MIC for yeast and yeast-like strains; assay type: cell-based; details: Kluyveromyces marxianus; 48 hours, 35° C.; read-out: Minimal Inhibitory Concentration (MIC)
# Experimental: as §5, §6, §11, §12, §8, §9
# Candida glabrata (ISS 1) = experiment: MIC for yeast and yeast-like strains; assay type: cell-based; details: Nakaseomyces glabratus; 48 hours, 35° C.; read-out: Minimal Inhibitory Concentration (MIC)
# Experimental: as §5, §6, §11, §12, §8, §9
# [6] = tested on: Candida tropicalis (ISS 1); experiment: MIC for yeast and yeast-like strains; assay type: cell-based; details: 48 hours, 35° C., read-out: Minimal Inhibitory Concentration (MIC)
# Experimental: as §5, §6, §11, §12, §8, §9
# Candida albicans (ISS 1) = experiment: MIC for yeast and yeast-like strains; assay type: cell-based; details: 48 hours, 35° C., read-out: Minimal Inhibitory Concentration (MIC)
# Experimental: as §5, §6, §11, §12, §8, §9
# Penicillium sp. (1302) = experiment: MIC for filamentous fungi; assay type: cell-based; details: read-out: Minimal Inhibitory Concentration (MIC)
# Description: as §1, §2, §3, §4
# [7] = tested on: Aspergillus niger (ATCC 16404); experiment: MIC for filamentous fungi; assay type: cell-based; details: ATCC16404, read-out: Minimal Inhibitory Concentration (MIC)
# Description: as §1, §2, §3, §4
# [8] = tested on: Aspergillus fumigatus (2/A); experiment: MIC for filamentous fungi; assay type: cell-based; details: read-out: Minimal Inhibitory Concentration (MIC)
# Description: as §1, §2, §3, §4
# [9] = tested on: Aspergillus fumigatus (C/1); experiment: MIC for filamentous fungi; assay type: cell-based; details: read-out: Minimal Inhibitory Concentration (MIC)
# Description: as §1, §2, §3, §4
# Mucor mucedo (ATCC 7941) = experiment: MIC for filamentous fungi; assay type: cell-based; details: ATCC7941, read-out: Minimal Inhibitory Concentration (MIC)
# Description: as §1, §2, §3, §4
# [10] = tested on: Aspergillus fumigatus (ATCC 28212); experiment: MIC for filamentous fungi; assay type: cell-based; details: ATCC28212, read-out: Minimal Inhibitory Concentration (MIC)
# Description: as §1, §2, §3, §4
# [11] = tested on: Aspergillus fumigatus (1/A); experiment: MIC for filamentous fungi; assay type: cell-based; details: read-out: Minimal Inhibitory Concentration (MIC)
# Description: as §1, §2, §3, §4
# Fusarium sp. (ISS 1) = experiment: MIC for filamentous fungi; assay type: cell-based; details: read-out: Minimal Inhibitory Concentration (MIC)
# Description: as §1, §2, §3, §4
# [12] = tested on: Cryptococcus neoformans (4711); experiment: MIC for yeast and yeast-like strains; assay type: cell-based; details: 48 hours, 35° C., read-out: Minimal Inhibitory Concentration (MIC)
# Experimental: as §5, §6, §7, §8, §9
# [13] = tested on: Saccharomyces cerevisiae (ATCC 7752); experiment: MIC for yeast and yeast-like strains; assay type: cell-based; details: ATCC7752, 48 hours, 35° C., read-out: Minimal Inhibitory Concentration (MIC)
# Experimental: as §5, §6, §7, §8, §9
# [14] = tested on: Candida tropicalis (5705); experiment: MIC for yeast and yeast-like strains; assay type: cell-based; details: 48 hours, 35° C., read-out: Minimal Inhibitory Concentration (MIC)
# Experimental: as §5, §6, §7, §8, §9
# Candida albicans (A 54) = experiment: MIC for yeast and yeast-like strains; assay type: cell-based; details: 48 hours, 35° C., read-out: Minimal Inhibitory Concentration (MIC)
# Experimental: as §5, §6, §7, §8, §9
# [15] = tested on: Torulopsis candida (D.S.); experiment: MIC for yeast and yeast-like strains; assay type: cell-based; details: Suzukiozyma candida; 48 hours, 35° C.; read-out: Minimal Inhibitory Concentration (MIC)
# Experimental: as §5, §6, §7, §8, §9
# Candida albicans (562) = experiment: MIC for yeast and yeast-like strains; assay type: cell-based; details: 48 hours, 35° C., read-out: Minimal Inhibitory Concentration (MIC)
# Experimental: as §5, §6, §7, §8, §9
# Candida krusei (ISS 1) = experiment: MIC for yeast and yeast-like strains; assay type: cell-based; details: Pichia kudriavzevii; 48 hours, 35° C.; read-out: Minimal Inhibitory Concentration (MIC)
# Experimental: as §5, §6, §7, §8, §9
# [16] = tested on: Epidermophyton floccosum (IHEM 3495); experiment: MIC for dermatophytic fungi; assay type: cell-based; details: 35° C., 96 hours, read-out: Minimal Inhibitory Concentration (MIC)
# Experimental: (§13) The following strains were used: Trichophyton menthagrophytes ATCC 9533, Trichophyton rubrum IHEM 4274, Microsporum canis IHEM 3522, Epydermophyton floccosum IHEM 3495. The tested substances were: ST 722, ST 1033, ST 1037, ST 1050, ST 1051, ST 1052,. ST 1053.
# (§14) The assay was performed following the same procedure described for the yeasts, by using 7-day fungi cultures grown at 30° C. in Potato Dextrose agar, and harvested with Sabouraud broth and Tween 80 (0.5%).
# (§15) After washing with Yeast Nitrogen Base, supplemented with asparagine and glucose (as carbon source), the fungal suspension was fragmented using a tissue grinder until the largest clumps or aggregates were undetectable within the grinder. This fungal suspension was then appropriately diluted in YNB to yield a concentration of 2.0×10^5 infective particles/ml (small mycelium fragments, micro-and macroaleuriospores).
# (§16) Volumes of 100 μl both of the fungal suspensions and substance solutions, two-fold serially diluted in assay medium, were distributed into each well of a microtiter plate (96 wells, round bottom), which was incubated at 35° C. for 96 hours.
# [17] = tested on: Trichophyton rubrum (IHEM 4274); experiment: MIC for dermatophytic fungi; assay type: cell-based; details: 35° C., 96 hours, read-out: Minimal Inhibitory Concentration (MIC)
# Experimental: as §13, §14, §15, §16
# [18] = tested on: Microsporum canis (IHEM 3522); experiment: MIC for dermatophytic fungi; assay type: cell-based; details: 35° C., 96 hours, read-out: Minimal Inhibitory Concentration (MIC)
# Experimental: as §13, §14, §15, §16
# [19] = tested on: Trichophyton menthagrophites (ATCC 9533); experiment: MIC for dermatophytic fungi; assay type: cell-based; details: ATCC9533, 35° C., 96 hours, read-out: Minimal Inhibitory Concentration (MIC)
# Experimental: as §13, §14, §15, §16
# Candida albicans (PG) = experiment: MIC and MFC for yeast and yeast-like strains; assay type: cell-based; details: 48 hours, 35° C., read-out: Minimal Inhibitory Concentration (MIC)
# Experimental: as §5, §6, §11, §12, §8, §9, §10
# dermatophytic fungi = experiment: MIC / MFC for dermatophytic fungi, all strains; assay type: cell-based, Trichophyton, Microsporum, Epidermophyton; details: versus susceptible strains
# Experimental: as §13, §14, §15, §16
# Candida albicans (Ca 2) = experiment: MIC for yeast and yeast-like strains; assay type: cell-based; details: 48 hours, 35° C., read-out: Minimal Inhibitory Concentration (MIC)
# Experimental: as §5, §6, §7, §8, §9
compound,measurement,setting,value
CCCCCCCCCCCCCOC(=O)C[C@H](C[N+](C)(C)C)OC(=O)CC(C)C [ST 1033],MIC,filamentous fungi,3.9 µg/mL
same,MIC,yeast-like fungi,2.7 µg/mL
same,MIC,[1],6.25 µg/mL
same,MIC,[2],1.56 µg/mL
same,MIC,[3],3.12 µg/mL
same,MIC,[4],3.12 µg/mL
same,MIC,[5],3.12 µg/mL
same,MIC,Candida glabrata (ISS 1),3.12 µg/mL
same,MIC,[6],3.12 µg/mL
same,MIC,Candida albicans (ISS 1),1.56 µg/mL
same,MIC,Penicillium sp. (1302),3.12 µg/mL
same,MIC,[7],6.25 µg/mL
same,MIC,[8],3.12 µg/mL
same,MIC,[9],3.12 µg/mL
same,MIC,Mucor mucedo (ATCC 7941),6.25 µg/mL
same,MIC,[10],3.12 µg/mL
same,MIC,[11],3.12 µg/mL
same,MIC,Fusarium sp. (ISS 1),3.12 µg/mL
same,MIC,[12],0.78 µg/mL
same,MIC,[13],3.12 µg/mL
same,MIC,[14],3.12 µg/mL
same,MIC,Candida albicans (A 54),1.56 µg/mL
same,MIC,[15],3.12 µg/mL
same,MIC,Candida albicans (562),1.56 µg/mL
same,MIC,Candida krusei (ISS 1),3.12 µg/mL
same,MIC,[16],25 µg/mL
same,MIC,[17],6.25 µg/mL
same,MIC,[18],6.25 µg/mL
same,MIC,[19],12.5 µg/mL
same,MIC,Candida albicans (PG),3.12 µg/mL
same,MIC,dermatophytic fungi,12.5 µg/mL
CCCCCCCCCCCCOC(=O)C[C@H](C[N+](C)(C)C)OC(=O)CC(C)C [ST 1037],MIC,filamentous fungi,6.64 µg/mL
same,MIC,yeast-like fungi,2.8 µg/mL
same,MIC,[1],6.25 µg/mL
same,MIC,[2],1.56 µg/mL
same,MIC,[3],3.12 µg/mL
same,MIC,[4],1.56 µg/mL
same,MIC,[5],6.25 µg/mL
same,MIC,Candida glabrata (ISS 1),3.12 µg/mL
same,MIC,[6],3.12 µg/mL
same,MIC,Candida albicans (ISS 1),3.12 µg/mL
same,MIC,Penicillium sp. (1302),6.25 µg/mL
same,MIC,[7],6.25 µg/mL
same,MIC,[8],6.25 µg/mL
same,MIC,[9],6.25 µg/mL
same,MIC,Mucor mucedo (ATCC 7941),12.5 µg/mL
same,MIC,[10],6.25 µg/mL
same,MIC,[11],6.25 µg/mL
same,MIC,Fusarium sp. (ISS 1),3.12 µg/mL
same,MIC,[12],0.78 µg/mL
same,MIC,[13],3.12 µg/mL
same,MIC,[14],3.12 µg/mL
same,MIC,Candida albicans (Ca 2),1.56 µg/mL
same,MIC,Candida albicans (A 54),1.56 µg/mL
same,MIC,[15],3.12 µg/mL
same,MIC,Candida albicans (562),1.56 µg/mL
same,MIC,Candida krusei (ISS 1),1.56 µg/mL
same,MIC,[16],25 µg/mL
same,MIC,[17],6.25 µg/mL
same,MIC,[18],12.5 µg/mL
same,MIC,[19],12.5 µg/mL
same,MIC,Candida albicans (PG),3.12 µg/mL
same,MIC,dermatophytic fungi,14.1 µg/mL
